Common to all, as to assay type: binding
For assay [1], the target named is Recombinant human Bcl-2 protein (Homo sapiens (Human), UniProt P10415). The assay can be described thus: Bcl-2 TR-FRET Assay. The protocol:
Biological Example: Bcl-2 TR-FRET Assay
Compounds disclosed herein were tested for blocking of Bcl-2 protein with its ligand in an assay based on Time-Resolved Fluorescence Resonance Energy Transfer (TR-FRET) methodology. Recombinant human 0.05 nM Bcl-2 protein was pre-incubated with a serial dilution of compounds disclosed herein (top final concentration is 1 uM or 0.1 uM or 0.02 uM or 0.01 uM, 10 points) at room temperature for 0.5 hour in an assay buffer containing 20 mM potassium phosphate buffer, pH 7.5, 50 mM NaCl. 1 mM EDTA, 0.05% Tween-20, 0.01% BSA. Then the FITC labeled Bak peptide Ac-GQVGRQLAIIGDK(FITC)INR-amide (0.5 nM) and MAb Anti 6His Tb cryptate Gold were added to plate and further incubated at room temperature for 1 hour. The TR-FRET signals (337 nm-520 nm-490 nm) were read on BMG PHERAstar FSX instrument. The inhibition percentage of Bcl-2 interaction with its ligand in presence of increasing concentrations of compounds was calculated based on the TR-FRET signals. The IC50 for each compound was derived from fitting the data to the four-parameter logistic equation by Graphpad Prism software or Dotmatics.

Assay [2] addresses recombinant human Bcl-2-G101V protein (Homo sapiens (Human), UniProt P10415, G101V). The assay can be described thus: Bcl-2-G101V TR-FRET Assay. Particulars: Bcl-2 G101V mutant, TR-FRET; read-out: Biochemical assay (IC50, nM) Bcl-2 G101V. The protocol: (§1) Biological Example: Bcl-2-G101V TR-FRET Assay
(§2) […]. The TR-FRET signals (ex337 nm, em490 nm/520 nm) were read on BMG PHERAstar FSX instrument. The inhibition percentage of Bcl-2-G101V interaction with its ligand in presence of increasing concentrations of compounds was calculated based on the ratio of fluorescence at 490 nm to that at 520 nm. The IC50 for each compound was derived from fitting the data to the four-parameter logistic equation by Graphpad Prism software or Dotmatics.
A general note: In TR-FRET formats the signal depends on donor and acceptor labels being close together.

Assay [3] concerns recombinant human Bcl-2-G101V protein. The assay can be described thus: Bcl-2-G101V TR-FRET Assay. Particulars: for Ratio of Bcl-2 G101V/WT: ratio of biochemical IC50 Bcl-2 G101V / Bcl-2 WT. The protocol: as §1, §2
For assay [4], the target named is recombinant human Bcl-2 D103Y protein (Homo sapiens (Human), UniProt P10415, D103Y). In words: Bcl-2-D103Y Biochemical Assay (TR-FRET). Particulars: for IC50: TR-FRET, FITC labeled Bak peptide; for Ratio of Bcl-2 D103Y/Bcl-2 WT: ratio of IC50. On the procedure: Biological Example: Bcl-2-D103Y Biochemical Assay
[…]. The TR-FRET signals (ex337 nm, em490 nm/520 nm) were read on BMG PHERAstar FSX instrument. The inhibition percentage of Bcl-2 D103Y interaction with its ligand in presence of increasing concentrations of compounds was calculated based on the ratio of fluorescence at 490 nm to that at 520 nm. The IC50 for each compound was derived from fitting the data to the four-parameter logistic equation by Dotmatics.

Setting [5] is: Bcl-2 wild type, TR-FRET, read-out: Biochemical assay (IC50, nM) Bcl-2 WT.
Setting [6] is: wild type Bcl-2, unit inferred, read-out: Bcl-2 WT.

Read-outs that look alike come from different tables or passages of the source.

Turning to `CC(C)c1ccccc1[C@H]1CN(C(C)C)CCN1C1CC2(CCN(c3ccc(C(=O)NS(=O)(=O)c4ccc(NC[C@H]5CC[C@](C)(O)CC5)c([N+](=O)[O-])c4)c(Oc4cnc5[nH]ccc5c4)c3)CC2)C1` (single isomer, unassigned) [Example 3b, 2-((1H-pyrrolo[2,3-b]pyridin-5-yl)oxy)-N-((4-((((1r,4r)-4-hydroxy-4-methylcyclohexyl)methyl)amino)-3-nitrophenyl)sulfonyl)-4-(2-((R or S)-4-isopropyl-2-(2-isopropylphenyl)piperazin-1-yl)-7-azaspiro[3.5]nonan-7-yl)benzamide], the IC50 was 0.0083 nM in assay [1] (setting [5]) and 0.14 nM in assay [2]. Besides, the “Ratio of Bcl-2 G101V/WT” value in assay [3] turned out to be 16.9.
`CC(C)c1ccccc1C1CN(C2COC2)CCN1C1CC2(CCN(c3ccc(C(=O)NS(=O)(=O)c4ccc(NC[C@H]5CC[C@](C)(O)CC5)c([N+](=O)[O-])c4)c(Oc4cnc5[nH]ccc5c4)c3)CC2)C1` (single isomer, unassigned) [Example 6a, 2-((1H-pyrrolo[2,3-b]pyridin-5-yl)oxy)-N-((4-((((1r,4r)-4-hydroxy-4-methylcyclohexyl)methyl)amino)-3-nitrophenyl)sulfonyl)-4-(2-((S or R)-2-(2-isopropylphenyl)-4-(oxetan-3-yl)piperazin-1-yl)-7-azaspiro[3.5]nonan-7-yl)benzamide]: the results for the IC50 in assay [1] (setting [6]) and in assay [4] were 0.0078 nM and 0.11 nM, respectively.
On to `CC(C)c1ccccc1[C@H]1CN(C2COC2)CCN1C1CC2(CCN(c3ccc(C(=O)NS(=O)(=O)c4ccc(NC[C@H]5CC[C@](C)(O)CC5)c([N+](=O)[O-])c4)c(Oc4cnc5[nH]ccc5c4)c3)CC2)C1` (single isomer, unassigned) [Example 6a, 2-((1H-pyrrolo[2,3-b]pyridin-5-yl)oxy)-N-((4-((((1r,4r)-4-hydroxy-4-methylcyclohexyl)methyl)amino)-3-nitrophenyl)sulfonyl)-4-(2-((S or R)-2-(2-isopropylphenyl)-4-(oxetan-3-yl)piperazin-1-yl)-7-azaspiro[3.5]nonan-7-yl)benzamide], for which the “Ratio of Bcl-2 D103Y/Bcl-2 WT” value in assay [4] was 13.
As to `CC(C)c1ccccc1[C@@H]1CN(Cc2cnn(C)c2)CCN1C1CC2(CCN(c3ccc(C(=O)NS(=O)(=O)c4ccc(NC[C@H]5CC[C@](C)(O)CC5)c([N+](=O)[O-])c4)c(Oc4cnc5[nH]ccc5c4)c3)CC2)C1` (single isomer, unassigned) [Example 22a, 2-((1H-pyrrolo[2,3-b]pyridin-5-yl)oxy)-N-((4-((((1r,4r)-4-hydroxy-4-methylcyclohexyl)methyl)amino)-3-nitrophenyl)sulfonyl)-4-(2-((R or S)-2-(2-isopropylphenyl)-4-((1-methyl-1H-pyrazol-4-yl)methyl)piperazin-1-yl)-7-azaspiro [3.5]nonan-7-yl)benzamide], in assay [3], the “Ratio of Bcl-2 G101V/WT” value was 8.1. Moreover, the “ratio of Bcl-2 D103Y/Bcl-2 wt, compared with F91b in WO2019210828” value in assay [4] (comparison in words) is “significantly lower”. Also, the “Ratio of Bcl-2 D103Y/Bcl-2 WT” value in assay [4] came out at 5.2.
With `COc1ccc(CN2CCN(C3CC4(CCN(c5ccc(C(=O)NS(=O)(=O)c6ccc(NC[C@H]7CC[C@](C)(O)CC7)c([N+](=O)[O-])c6)c(Oc6cnc7[nH]cc(F)c7c6)c5)CC4)C3)[C@H](c3ccccc3C(C)C)C2)cc1` (single isomer, unassigned) [Example 95, 2-((3-fluoro-1H-pyrrolo[2,3-b]pyridin-5-yl)oxy)-N-((4-((((1r,4r)-4-hydroxy-4-methylcyclohexyl)methyl)amino)-3-nitrophenyl)sulfonyl)-4-(2-((R or S)-2-(2-isopropylphenyl)-4-(4-methoxybenzyl)piperazin-1-yl)-7-azaspiro[3.5]nonan-7-yl) benzamide], the figures for the IC50 in assay [1] (setting [5]) and in assay [2] were 0.23 nM and 0.38 nM, respectively. In addition, the “Ratio of Bcl-2 G101V/WT” value in assay [3] was found to be 1.7.
In the case of `CC(C)c1ccccc1C1CN(C(C)C)CCN1C1CC2(CCN(c3ccc(C(=O)NS(=O)(=O)c4ccc(NC[C@H]5CC[C@](C)(O)CC5)c([N+](=O)[O-])c4)c(Oc4cnc5[nH]ccc5c4)c3)CC2)C1` (stereo partly shown) [Example 3, 2-((1H-pyrrolo[2,3-b]pyridin-5-yl)oxy)-N-((4-((((1r,4r)-4-hydroxy-4-methylcyclohexyl)methyl)amino)-3-nitrophenyl)sulfonyl)-4-(2-(4-isopropyl-2-(2-isopropylphenyl)piperazin-1-yl)-7-azaspiro[3.5]nonan-7-yl)benzamide], the IC50 in assay [1] (setting [6]) came out at 0.019 nM. For the same compound, in assay [4], the IC50 worked out at 0.11 nM and the “Ratio of Bcl-2 D103Y/Bcl-2 WT” value stood at 11.
As to `COc1ccc(C(=O)N2CCN(C3CC4(CCN(c5ccc(C(=O)NS(=O)(=O)c6ccc(NC[C@H]7CC[C@](C)(O)CC7)c([N+](=O)[O-])c6)c(Oc6cnc7[nH]ccc7c6)c5)CC4)C3)C(c3ccccc3C(C)C)C2)cc1` (stereo partly shown) [Example 61, 2-((1H-pyrrolo[2,3-b]pyridin-5-yl)oxy)-N-((4-((((1r,4r)-4-hydroxy-4-methylcyclohexyl)methyl)amino)-3-nitrophenyl)sulfonyl)-4-(2-(2-(2-isopropylphenyl)-4-(4-methoxybenzoyl)piperazin-1-yl)-7-azaspiro[3.5]nonan-7-yl) benzamide], the “ratio of IC50 of Bcl-2 G101V/Bcl-2 wt, compared with Example F132b in WO2019210828 and ABT-199 (venetoclax)” value in assay [3] (comparison in words) is “much lower”.
With `CC(C)c1ccccc1C1CN(Cc2ccc3occc3c2)CCN1C1CC2(CCN(c3ccc(C(=O)NS(=O)(=O)c4ccc(NC[C@H]5CC[C@](C)(O)CC5)c([N+](=O)[O-])c4)c(Oc4cnc5[nH]ccc5c4)c3)CC2)C1` (stereo partly shown) [Example 96, 2-((1H-pyrrolo[2,3-b]pyridin-5-yl)oxy)-4-(2-(4-(benzofuran-5-ylmethyl)-2-(2-isopropylphenyl)piperazin-1-yl)-7-azaspiro[3.5]nonan-7-yl)-N-((4-((((1r,4r)-4-hydroxy-4-methylcyclohexyl)methyl)amino)-3-nitrophenyl)sulfonyl)benzamide], the IC50 amounted to 0.041 nM in assay [1] (setting [6]) and 0.23 nM in assay [4]. Also, in assay [4], the “Ratio of Bcl-2 D103Y/Bcl-2 WT” value stood at 5.6.
The like results for `COc1ccc(N(C)C2CCN(C3CC4(CCN(c5ccc(C(=O)NS(=O)(=O)c6ccc(NC[C@H]7CC[C@](C)(O)CC7)c([N+](=O)[O-])c6)c(Oc6cnc7[nH]ccc7c6)c5)CC4)C3)C(c3ccccc3C(C)C)C2)cc1` (stereo partly shown) [Example 150] were, in that order, 0.13 nM, 0.53 nM and 4.1.
For the compound `COc1ccc(CN2CCN(C3CC4(C3)CN(c3ccc(C(=O)NS(=O)(=O)c5ccc(NC[C@H]6CC[C@](C)(O)CC6)c([N+](=O)[O-])c5)c(Oc5cnc6[nH]cc(Cl)c6c5)c3)C4)[C@H](c3ccccc3C(C)C)C2)cc1` [Example 207, 2-((3-chloro-1H-pyrrolo[2,3-b]pyridin-5-yl)oxy)-N-((4-((((1r,4r)-4-hydroxy-4-methylcyclohexyl)methyl)amino)-3-nitrophenyl)sulfonyl)-4-(6-((R)-2-(2-isopropylphenyl)-4-(4-methoxybenzyl)piperazin-1-yl)-2-azaspiro[3.3]heptan-2-yl) benzamide], in assay [1] (setting [6]), the IC50 is 0.2 nM. Moreover, in assay [4], the IC50 came to 0.22 nM and the “Ratio of Bcl-2 D103Y/Bcl-2 WT” value was 1.1.
Consider `COc1ccc(CN2CCN(C3CC4(CCN(c5ccc(C(=O)NS(=O)(=O)c6ccc(NCC7CCC(CO)O7)c([N+](=O)[O-])c6)c(Oc6cnc7[nH]ccc7c6)c5)CC4)C3)[C@H](c3ccccc3C(C)C)C2)cc1` (stereo partly drawn) [Example 220, 2-((1H-pyrrolo[2,3-b]pyridin-5-yl)oxy)-N-((4-(((5-(hydroxymethyl)tetrahydrofuran-2-yl)methyl)amino)-3-nitrophenyl)sulfonyl)-4-(2-((R)-2-(2-isopropylphenyl)-4-(4-methoxybenzyl)piperazin-1-yl)-7-azaspiro[3.5]nonan-7-yl) benzamide], for which the IC50 stood at 0.044 nM in assay [1] (setting [6]) and 0.077 nM in assay [4]. The “Ratio of Bcl-2 D103Y/Bcl-2 WT” value in assay [4] was 1.8.

For the origin of these results see US20240376097A1, “BCL-2 Inhibitor” (BeiGene Ltd., priority 2020, published 2024).
